Assay results: US4018753A, “Polypeptides with ACTH-like activities” (Shionogi & Co., Ltd., priority 1974, dated 1977)
Square brackets hold non-standard residues; d marks the D form. Ends that are not written are not given here. Peptide text beside a SMILES is read from it. Aib = CC(C)(N)C(=O)O

Tests used:
melanocyte = experiment: In vivo melanocyte-stimulating activity; conditions: relative potency
Method: The in vivo melanocyte-stimulating activity was determined according to the method described in Endocrinol. Japonica 19, 383 (1972).

rats = experiment: Effect on adrenal growth and thymus involution; format: in vivo; set-up: key: *: The effects on adrenal growth and thymus involution are very weak; conditions: i.m. 20 μg and 100 μg/rat/day for 2 days
Method: The effect on adrenal growth and thymus involution was determined in the following manner: peptides were intramuscularly injected into rats at a dose of 20 μg and 100 μg/rat/day respectively for 2 days. The rats were then submitted to autopsy 24 hours after the last injection, and then the adrenal and thymus were weighed respectively.

hypophysectomized rat [1] = experiment: Adrenal-stimulating activity by intramuscular administration to hypophysectomized rat; format: in vivo; conditions: relative potency; USP Corticotropin Reference Standard; injected into thigh muscle, blood sample 30 minutes after injection, 11-hydroxycorticosteroids
Method: (§1) Assays for adrenal-stimulating activity of the present polypeptides were carried out according to the different methods, comparing with that of native corticotropin (ACTH), [Gly^1 ]-ACTH(1-18)-NH2 [Bull.Chem.Soc.Japan 43 196 (1970)], [Aib^1 ]-ACTH(1-18)-NH2 [ibid., 43, 3873 (1970)], [Aib^1,Lys^17,18 ]-ACTH(1-18)-NH2, Cortrosyn^R (N.V.Organon, Netherland) and Cortrosyn-Z (N.V.Organon, Netherland). The adrenal-stimulating activity by the intravenous administration to hypophysectomized rat was determined in such a manner that a peptide preparation was injected into the femoral vein and a blood sample was collected from the abdominal aorta 30 minutes after the injection. The adrenal-stimulating activity by the intramuscular administration to hypophysectomized rat was also determined, where a peptide preparation was injected into the thigh muscle and a blood sample was collected from the abdominal aorta 30 minutes after injection. Throughout the experiment, the USP Corticotropin Reference Standard was used as a standard and the production of 11-hydroxycorticosteroids was determined by the fluorophotometric method of Peterson [J.Biol. Chem. 225 25 (1957)]. For each assay method several determinations were usually performed and the data obtained independently were submitted to the statistical treatment by Sheps and Moore procedure [J.Pharmacol. Extl. Therap. 128, 99 (1960)].

hypophysectomized rat [2] = experiment: Adrenal-stimulating activity by intravenous administration to hypophysectomized rat; format: in vivo; conditions: relative potency; USP Corticotropin Reference Standard; injected into femoral vein, blood sample 30 minutes after injection, 11-hydroxycorticosteroids
Method: as §1

[3] = relative potency, autopsy 24 hours after last injection, adrenal and thymus weighed

Molecule | Melanocyte-stimulating activity b) in vivo (melanocyte) | effect on adrenal growth and thymus involution a) (rats; [3]) | Adrenal-stimulating activity i.m. (hypophysectomized rat [1]) | Adrenal-stimulating activity i.v. (hypophysectomized rat [2]) | effect on adrenal growth and thymus involution a) (rats; symbol * in the table)
CSCC[C@H](NC(=O)[C@H](CO)NC(=O)[C@H](Cc1ccc(O)cc1)NC(=O)C(C)(C)N)C(=O)N[C@@H](CCC(=O)O)C(=O)N[C@@H](Cc1c[nH]cn1)C(=O)N[C@@H](Cc1ccccc1)C(=O)N[C@@H](CCCNC(=N)N)C(=O)N[C@@H](Cc1c[nH]c2ccccc12)C(=O)NCC(=O)N[C@@H](CCCCN)C(=O)N1CCC[C@H]1C(=O)N[C@H](C(=O)NCC(=O)N[C@@H](CCCCN)C(=O)N[C@@H](CCCCN)C(=O)N[C@@H](CCCCN)C(=O)N[C@@H](CCCCN)C(N)=O)C(C)C [[Aib^1,Lys^17,18]ACTH(1-18)NH2, [Aib^1,Lys^17,18]-ACTH(1-18)-NH2] (H-[Aib]YSMEHFRWGKPVGKKKK-NH2) | 0.82 | 0.40 | 9.4 | 9.3 | 
CSCC[C@H](NC(=O)[C@H](CO)NC(=O)[C@H](Cc1ccc(O)cc1)NC(=O)C(C)(C)N)C(=O)N[C@@H](CCC(=O)O)C(=O)N[C@@H](Cc1c[nH]cn1)C(=O)N[C@@H](Cc1ccccc1)C(=O)N[C@@H](CCCNC(=N)N)C(=O)N[C@@H](Cc1c[nH]c2ccccc12)C(=O)NCC(=O)N[C@@H](CCCCN)C(=O)N1CCC[C@H]1C(=O)N[C@H](C(=O)NCC(=O)N[C@@H](CCCCN)C(=O)N[C@@H](CCCCN)C(=O)N[C@@H](CCCNC(=N)N)C(=O)N[C@@H](CCCNC(=N)N)C(N)=O)C(C)C [[Aib^1]ACTH(1-18)NH2, [Aib^1]-ACTH(1-18)-NH2] (H-[Aib]YSMEHFRWGKPVGKKRR-NH2) | 1.00 | 0.12 | 9.9 | 4.1 | 
GYSMEHFRWGKPVGKKRR-NH2 [[Gly^1]ACTH(1-18)NH2, [Gly^1]-ACTH(1-18)-NH2] | 0.11 | very weak | 1.0 | 1.0 | *
Native ACTH: native corticotropin (ACTH) (SYSMEHFRWGKPVGKKRRPVKVYPNGAEDESAEAFPLEF; Corticotropin; UniProt P01189 138-176, looked up) |  | very weak | 4.0 | 1.0 | *
